Results: PubChem BioAssay AID1918991 (Molecular Pharmacology Branch, DTP, NCI, 2023)

Test system: 186277-243-T-J2-PDC complex spheroid growth
Assay: Anticancer human tumor 186277-243-T-J2-PDC patient-derived colon adenocarcinoma cell line growth inhibition [AhR]
Conditions: for IC50: curve of first compound; for viability, T/C: stronger effect = lower value; active = viability on the fitted dose curve at most 10% of control; inactive = the rest
Method in brief: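 Complex tumor spheroids co-cultured with HUVEC and human MSC stroma; AhR antagonists tested in combination with standard-of-care and investigational agents. Top concentration at or near clinical Cmax (else 10 microM), half-log dilutions; growth expressed as percent test/control.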

[1] = second compound 0.1 µM, first compound 0.000949 µM
[2] = second compound 0.1 µM, first compound 0.003 µM
[3] = second compound 0.1 µM, first compound 0.00949 µM
[4] = second compound 0.1 µM, first compound 0.03 µM
[5] = second compound 0.1 µM, first compound 0.0949 µM
[6] = second compound 0.1 µM, first compound 0.3 µM
[7] = second compound 0.316 µM, first compound 0.000949 µM
[8] = second compound 0.316 µM, first compound 0.003 µM
[9] = second compound 0.316 µM, first compound 0.00949 µM
[10] = second compound 0.316 µM, first compound 0.03 µM
[11] = second compound 0.316 µM, first compound 0.0949 µM
[12] = second compound 0.316 µM, first compound 0.3 µM
[13] = second compound 1 µM, first compound 0.000949 µM
[14] = second compound 1 µM, first compound 0.003 µM
[15] = second compound 1 µM, first compound 0.00949 µM
[16] = second compound 1 µM, first compound 0.03 µM
[17] = second compound 1 µM, first compound 0.0949 µM
[18] = second compound 1 µM, first compound 0.3 µM
[19] = second compound 3.16 µM, first compound 0.000949 µM
[20] = second compound 3.16 µM, first compound 0.003 µM
[21] = second compound 3.16 µM, first compound 0.00949 µM
[22] = second compound 3.16 µM, first compound 0.03 µM
[23] = second compound 3.16 µM, first compound 0.0949 µM
[24] = second compound 3.16 µM, first compound 0.3 µM
[25] = second compound 10 µM, first compound 0.000949 µM
[26] = second compound 10 µM, first compound 0.003 µM
[27] = second compound 10 µM, first compound 0.00949 µM
[28] = second compound 10 µM, first compound 0.03 µM
[29] = second compound 10 µM, first compound 0.0949 µM
[30] = second compound 10 µM, first compound 0.3 µM
[31] = second compound 0.1 µM, first compound 0.0316 µM
[32] = second compound 0.1 µM, first compound 0.1 µM
[33] = second compound 0.1 µM, first compound 0.316 µM
[34] = second compound 0.1 µM, first compound 1 µM
[35] = second compound 0.1 µM, first compound 3.16 µM
[36] = second compound 0.1 µM, first compound 10 µM
[37] = second compound 0.316 µM, first compound 0.0316 µM
[38] = second compound 0.316 µM, first compound 0.1 µM
[39] = second compound 0.316 µM, first compound 0.316 µM
[40] = second compound 0.316 µM, first compound 1 µM
[41] = second compound 0.316 µM, first compound 3.16 µM
[42] = second compound 0.316 µM, first compound 10 µM
[43] = second compound 1 µM, first compound 0.0316 µM
[44] = second compound 1 µM, first compound 0.1 µM
[45] = second compound 1 µM, first compound 0.316 µM
[46] = second compound 1 µM, first compound 1 µM
[47] = second compound 1 µM, first compound 3.16 µM
[48] = second compound 1 µM, first compound 10 µM
[49] = second compound 3.16 µM, first compound 0.0316 µM
[50] = second compound 3.16 µM, first compound 0.1 µM
[51] = second compound 3.16 µM, first compound 0.316 µM
[52] = second compound 3.16 µM, first compound 1 µM
[53] = second compound 3.16 µM, first compound 3.16 µM
[54] = second compound 3.16 µM, first compound 10 µM
[55] = second compound 10 µM, first compound 0.0316 µM
[56] = second compound 10 µM, first compound 0.1 µM
[57] = second compound 10 µM, first compound 0.316 µM
[58] = second compound 10 µM, first compound 1 µM
[59] = second compound 10 µM, first compound 3.16 µM
[60] = second compound 10 µM, first compound 10 µM
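Also: spheroids exposed to compounds for seven days before the viability read.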
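For viability, T/C in this document: luminescent signal used as a stand-in for viable cell amount; 100% = DMSO vehicle control wells.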

CC(C)CC(NC(=O)C(Cc1ccccc1)NC(=O)c1cnccn1)B(O)O (stereo not given) + Cc1cncc(-c2nc(NCCc3c[nH]c4ccccc34)c3ncn(C(C)C)c3n2)c1
0.0164 µM: IC50 (second compound 1 µM)
< 0.000949 µM: IC50 (second compound 10 µM)
0.0158 µM: IC50 (second compound 0.1 µM) | IC50 (second compound 0.316 µM)
inactive: viability, T/C [1] 103% | viability, T/C [2] 108% | viability, T/C [3] 88.1% | viability, T/C [7] 131% | viability, T/C [8] 120% | viability, T/C [9] 89.1% | viability, T/C [13] 97.3% | viability, T/C [14] 107% | viability, T/C [15] 95.2% | viability, T/C [19] 102% | viability, T/C [20] 116% | viability, T/C [21] 65.1% | viability, T/C [25] 44.9% | viability, T/C [26] 53.5%
0.0124 µM: IC50 (second compound 3.16 µM)
active: viability, T/C [4] 1.86% | viability, T/C [5] 0.49% | viability, T/C [6] 0.14% | viability, T/C [10] 0.33% | viability, T/C [11] 0.05% | viability, T/C [12] 0.12% | viability, T/C [16] 0.51% | viability, T/C [17] 0.15% | viability, T/C [18] 0.11% | viability, T/C [22] 0.66% | viability, T/C [23] 0.05% | viability, T/C [24] 0.13% | viability, T/C [27] 1.63% | viability, T/C [28] 0.26% | viability, T/C [29] 0.13% | viability, T/C [30] 0.2%

CCc1c2c(nc3ccc(O)cc13)-c1cc3c(c(=O)n1C2)COC(=O)[C@]3(O)CC + Cc1cncc(-c2nc(NCCc3c[nH]c4ccccc34)c3ncn(C(C)C)c3n2)c1
0.0204 µM: IC50 (second compound 0.316 µM)
active: viability, T/C [18] 11.8% | viability, T/C [24] 9.67% | viability, T/C [30] 3.87%
0.0178 µM: IC50 (second compound 3.16 µM)
inactive: viability, T/C [1] 112% | viability, T/C [2] 96% | viability, T/C [3] 66% | viability, T/C [4] 46.1% | viability, T/C [5] 25.2% | viability, T/C [6] 11.7% | viability, T/C [7] 126% | viability, T/C [8] 83.1% | viability, T/C [9] 70.9% | viability, T/C [10] 44.2% | viability, T/C [11] 21.7% | viability, T/C [12] 11.7% | viability, T/C [13] 123% | viability, T/C [14] 83.7% | viability, T/C [15] 73.5% | viability, T/C [16] 48.5% | viability, T/C [17] 20.2% | viability, T/C [19] 108% | viability, T/C [20] 75.2% | viability, T/C [21] 66.8% | viability, T/C [22] 43.7% | viability, T/C [23] 17.3% | viability, T/C [25] 24.6% | viability, T/C [26] 28.9% | viability, T/C [27] 32% | viability, T/C [28] 17.6% | viability, T/C [29] 6.54%
0.0232 µM: IC50 (second compound 0.1 µM)
< 0.000949 µM: IC50 (second compound 10 µM)
0.0262 µM: IC50 (second compound 1 µM)

Nc1ccccc1NC(=O)c1ccc(CNC(=O)OCc2cccnc2)cc1 + Cc1cncc(-c2nc(NCCc3c[nH]c4ccccc34)c3ncn(C(C)C)c3n2)c1
3.14 µM: IC50 (second compound 0.1 µM)
active: viability, T/C [36] 8.44% | viability, T/C [42] 7.07% | viability, T/C [48] 8.57% | viability, T/C [54] 8.37% | viability, T/C [59] 2.97% | viability, T/C [60] 0.95%
3.3 µM: IC50 (second compound 3.16 µM)
inactive: viability, T/C [31] 91.1% | viability, T/C [32] 94.1% | viability, T/C [33] 100% | viability, T/C [34] 96% | viability, T/C [35] 49.7% | viability, T/C [37] 101% | viability, T/C [38] 105% | viability, T/C [39] 101% | viability, T/C [40] 93.5% | viability, T/C [41] 48.8% | viability, T/C [43] 82% | viability, T/C [44] 114% | viability, T/C [45] 92.2% | viability, T/C [46] 111% | viability, T/C [47] 57.1% | viability, T/C [49] 94.1% | viability, T/C [50] 97.7% | viability, T/C [51] 93.1% | viability, T/C [52] 86.1% | viability, T/C [53] 51.6% | viability, T/C [55] 42.4% | viability, T/C [56] 36.9% | viability, T/C [57] 23.9% | viability, T/C [58] 10.1%
3.74 µM: IC50 (second compound 1 µM)
< 0.0316 µM: IC50 (second compound 10 µM)
3.06 µM: IC50 (second compound 0.316 µM)

Nc1ccn(C2OC(CO)C(O)C2(F)F)c(=O)n1 (stereo not given) + Cc1cncc(-c2nc(NCCc3c[nH]c4ccccc34)c3ncn(C(C)C)c3n2)c1
< 0.0316 µM: IC50 (second compound 0.1 µM) | IC50 (second compound 0.316 µM) | IC50 (second compound 1 µM) | IC50 (second compound 3.16 µM) | IC50 (second compound 10 µM)
active: viability, T/C [31] 7.18% | viability, T/C [32] 8.73% | viability, T/C [33] 9.08% | viability, T/C [34] 7.46% | viability, T/C [35] 9.53% | viability, T/C [36] 8.43% | viability, T/C [37] 7.58% | viability, T/C [38] 7.59% | viability, T/C [39] 8.77% | viability, T/C [40] 7.4% | viability, T/C [41] 9.8% | viability, T/C [42] 10.2% | viability, T/C [43] 8.42% | viability, T/C [44] 8.73% | viability, T/C [45] 8.67% | viability, T/C [46] 8.54% | viability, T/C [47] 10.4% | viability, T/C [48] 9.89% | viability, T/C [49] 8.88% | viability, T/C [50] 9.87% | viability, T/C [51] 8.78% | viability, T/C [52] 9.16% | viability, T/C [53] 10.2% | viability, T/C [54] 11.2% | viability, T/C [55] 9.79% | viability, T/C [56] 9.68% | viability, T/C [57] 7.97% | viability, T/C [58] 8.56% | viability, T/C [59] 9.28% | viability, T/C [60] 10.2%

O=C(C=Cc1cccc(S(=O)(=O)Nc2ccccc2)c1)NO + Cc1cncc(-c2nc(NCCc3c[nH]c4ccccc34)c3ncn(C(C)C)c3n2)c1
0.756 µM: IC50 (second compound 3.16 µM)
inactive: viability, T/C [31] 98.9% | viability, T/C [32] 89.6% | viability, T/C [33] 94% | viability, T/C [34] 47.9% | viability, T/C [37] 92.1% | viability, T/C [38] 89.1% | viability, T/C [39] 94.8% | viability, T/C [40] 42% | viability, T/C [43] 105% | viability, T/C [44] 95.7% | viability, T/C [45] 86.8% | viability, T/C [46] 42.2% | viability, T/C [49] 106% | viability, T/C [50] 103% | viability, T/C [51] 111% | viability, T/C [52] 31.8% | viability, T/C [55] 76.9% | viability, T/C [56] 67.9% | viability, T/C [57] 28.2%
0.832 µM: IC50 (second compound 0.316 µM)
0.955 µM: IC50 (second compound 0.1 µM)
active: viability, T/C [35] 8.19% | viability, T/C [36] 2.59% | viability, T/C [41] 7.8% | viability, T/C [42] 2.18% | viability, T/C [47] 9.76% | viability, T/C [48] 2.85% | viability, T/C [53] 10.6% | viability, T/C [54] 3.82% | viability, T/C [58] 10.7% | viability, T/C [59] 6.37% | viability, T/C [60] 3.77%
0.818 µM: IC50 (second compound 1 µM)
0.168 µM: IC50 (second compound 10 µM)

O=C(c1cc(Cc2n[nH]c(=O)c3ccccc23)ccc1F)N1CCN(C(=O)C2CC2)CC1 + Cc1cncc(-c2nc(NCCc3c[nH]c4ccccc34)c3ncn(C(C)C)c3n2)c1
> 10 µM: IC50 (second compound 0.1 µM) | IC50 (second compound 0.316 µM) | IC50 (second compound 1 µM) | IC50 (second compound 3.16 µM)
inactive: viability, T/C [31] 107% | viability, T/C [32] 110% | viability, T/C [33] 88.1% | viability, T/C [34] 110% | viability, T/C [35] 123% | viability, T/C [36] 123% | viability, T/C [37] 108% | viability, T/C [38] 103% | viability, T/C [39] 96.5% | viability, T/C [40] 110% | viability, T/C [41] 125% | viability, T/C [42] 130% | viability, T/C [43] 97.6% | viability, T/C [44] 96.5% | viability, T/C [45] 100% | viability, T/C [46] 115% | viability, T/C [47] 125% | viability, T/C [48] 134% | viability, T/C [49] 115% | viability, T/C [50] 110% | viability, T/C [51] 115% | viability, T/C [52] 116% | viability, T/C [53] 146% | viability, T/C [54] 130% | viability, T/C [55] 48.2% | viability, T/C [56] 44.3% | viability, T/C [57] 38.8% | viability, T/C [58] 41.5% | viability, T/C [59] 28.5% | viability, T/C [60] 21.5%
< 0.0316 µM: IC50 (second compound 10 µM)
